Key:
[1] = Clinical study: single topical ocular dose, intraocular pressure in adults with OHT or POAG; assay type: in vivo, human; settings: for IOP difference from the placebo response: 2 hours postdose
From the text: The clinical study described herein is a multi-center, randomized, double-blind, placebo-controlled, dose-escalation study of a single topical ocular application of the study drug (i.e., Compound A or placebo) to the one study eye of adults with OHT or POAG. The “study eye” was defined as the eye with the higher mean IOP, recorded between 7:00 and 8:00 AM on the day prior to dosing (Day 0).
The adult subjects were sequentially assigned to 1 of 7 treatment groups.
Masked-intraocular pressures were determined in duplicate with a Goldmann tonometer following traditional corneal anesthesia. […] Subsequent bilateral external eye examinations and masked-IOP determinations were performed at 9:00 AM, 10:00 AM, 12:00 noon, and 2:00 PM (each ±5 minutes), corresponding to 1, 2, 4, and 6 hours post study drug application. In addition in the 700 mcg cohort an IOP determination was performed at 6:00 PM (18:00), corresponding to 10 hours post study drug application.
The study drug was only administered to one eye per subject (the study eye). Dosages ranged from 2.5 micrograms to 350 micrograms per 50 microliter drop, per respective treatment group. A board-certified ophthalmologist (or comparably trained designee) administered the study drug. Randomized enrollment of subjects into each successive treatment groups was predicated upon the review and approval of the safety data from the completed treatment groups by the Safety Research Committee, consisting of three qualified physicians (i.e., an internist, cardiologist, and ophthalmologist).

[2] = target: human A1 adenosine receptor (Homo sapiens (Human), UniProt P30542); test: Inhibition of forskolin-stimulated adenylyl cyclase activity via A1 receptor; assay type: biochemical; settings: membranes of CHO cells stably transfected with human A1 receptor
human A1 adenosine receptor, sequence (P30542 whole entry): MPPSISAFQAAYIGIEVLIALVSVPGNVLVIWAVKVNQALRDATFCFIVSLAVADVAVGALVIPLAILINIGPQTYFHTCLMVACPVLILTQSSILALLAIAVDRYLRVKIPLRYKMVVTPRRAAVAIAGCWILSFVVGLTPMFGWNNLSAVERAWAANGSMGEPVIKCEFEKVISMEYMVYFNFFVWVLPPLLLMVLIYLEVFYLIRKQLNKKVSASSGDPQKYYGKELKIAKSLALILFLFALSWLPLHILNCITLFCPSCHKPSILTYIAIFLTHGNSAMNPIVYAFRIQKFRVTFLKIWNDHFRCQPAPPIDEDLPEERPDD
Method: (§1) The A1 and A3 receptor-mediated inhibition of forskolin-stimulated adenylyl cyclase activity was tested in membranes prepared from CHO cells stably transfected with the human A1 and A3 adenosine receptors. The A2a and A2b receptor-mediated stimulation of basal cyclase activity was tested in membranes prepared from CHO cells stably transfected with the human A2a and […] adenosine receptors
(§2) Adenylyl Cyclase Inhibition Via Human Adenosine A1 and A3 Receptors

A3 adenosine receptor [3] = target: T1, A3 adenosine receptor (Homo sapiens (Human), UniProt P0DMS8); test: Adenosine receptor binding selectivity A1 > A3; settings: ratio of Ki values
T1 sequence (P0DMS8 whole entry): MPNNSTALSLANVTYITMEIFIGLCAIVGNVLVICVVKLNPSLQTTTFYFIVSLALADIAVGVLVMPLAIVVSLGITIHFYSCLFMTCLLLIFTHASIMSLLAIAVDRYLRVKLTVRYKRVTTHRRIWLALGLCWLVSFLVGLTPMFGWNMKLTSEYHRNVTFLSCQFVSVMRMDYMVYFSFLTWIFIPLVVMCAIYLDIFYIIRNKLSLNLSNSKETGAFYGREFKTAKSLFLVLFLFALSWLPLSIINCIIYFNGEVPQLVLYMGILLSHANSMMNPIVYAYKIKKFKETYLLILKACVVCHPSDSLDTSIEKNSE
Method: (§3) As used herein, the term “selective adenosine A1 agonist” means an A1 agonist that has a high affinity to the A1 receptor while simultaneously having a low affinity for the A2 and A3 adenosine receptors.
(§4) Membranes for radioligand binding experiments are prepared from fresh or frozen cells as described in Klotz et al., Naunyn-Schmiedeberg's Arch. […] The cell suspension is then homogenized in ice-cold hypotonic buffer (5 mM Tris/HCl, 2 mM EDTA, pH 7.4) and the homogenate is spun for 10 minutes (4° C.) at 1,000 g.
(§5) Nonspecific binding is determined in the presence of 100 μM R-PM and 1 mM theophylline, respectively. For details see Klotz et al., Naunyn-Schmiedeberg's Arch.

A2A adenosine receptor = A2A adenosine receptor (Homo sapiens (Human), UniProt P29274); test: Adenosine receptor binding selectivity A1 > A2A; settings: ratio of Ki values
A2A adenosine receptor, sequence (P29274 whole entry): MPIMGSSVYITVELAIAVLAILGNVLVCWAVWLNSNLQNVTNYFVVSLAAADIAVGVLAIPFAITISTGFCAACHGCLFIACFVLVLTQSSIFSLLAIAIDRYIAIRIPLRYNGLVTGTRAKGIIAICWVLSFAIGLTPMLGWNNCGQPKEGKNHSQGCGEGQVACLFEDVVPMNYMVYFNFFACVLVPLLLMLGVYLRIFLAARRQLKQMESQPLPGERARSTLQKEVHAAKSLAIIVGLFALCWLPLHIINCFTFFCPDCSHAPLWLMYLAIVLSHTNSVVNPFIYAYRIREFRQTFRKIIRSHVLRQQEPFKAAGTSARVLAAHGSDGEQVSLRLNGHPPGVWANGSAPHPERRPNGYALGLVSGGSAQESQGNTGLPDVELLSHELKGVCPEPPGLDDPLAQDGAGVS
Method: as §3, §4, §5

A3 adenosine receptor [4] = target: T1, A3 adenosine receptor; test: Inhibition of forskolin-stimulated adenylyl cyclase activity via A3 receptor; assay type: biochemical; settings: membranes of CHO cells stably transfected with human A3 receptor
Method: as §1, §2

Row | Compound | EC50 [2] [nM] | A1 > A3 SELECTIVITY [KiA3(nm)/KiA1(nm)] (A3 adenosine receptor [3]) | A1 > A2A SELECTIVITY [KiA2(nm)/KiA1(nm)] (A2A adenosine receptor) | EC50 (A3 adenosine receptor [4]) [nM] | further results
1 | O=[N+]([O-])OC[C@H]1O[C@@H](n2cnc3c(NC4CCCC4)ncnc32)[C@H](O)[C@@H]1O [Compound A, ((2R,3S,4R,5R)-5-(6-(cyclopentylamino)-9H-purin-9-yl)-3,4-dihydroxytetrahydrofuran-2-yl)methyl nitrate] | 17 |  |  |  | IOP difference from the placebo response ([1]; 350 mcg treatment group): Statistically significant differences from the placebo response; duration of the decrease in IOP ([1]; 350 mcg treatment group, entire observation period): ~6 h; IOP difference from the placebo response ([1]; 700 mcg treatment group): Statistically significant differences from the placebo response; dose group with % of subjects achieving greatest IOP decrement (responder analysis) ([1]; across 7 dose groups): 350 µg; dose with largest mean and median decreases in IOP ([1]; across 7 dose groups 2.5-700 mcg): 350 µg; decrement in IOP from the Day 1 pre-dose baseline ([1]; single topical ocular dose 2.5-700 mcg, study eye, OHT or POAG): Dose-related decrement in IOP; responder analysis: subjects with categorical mean IOP decreases from baseline of ≧10%, ≧15% or ≧20% ([1]; throughout the observation period (~6 hrs)): showed a dose-response; time post-dose of largest difference in IOP between drug-treated and placebo-treated eyes ([1]; topical ocular doses, human subjects): approximately 2 hours
2 | O=S(=O)([O-])OC[C@H]1O[C@@H](n2cnc3c(NC4CCCC4)ncnc32)[C@H](O)[C@@H]1O.[Na+] [Compound C, sodium ((2R,3S,4R,5R)-5-(6-(cyclopentylamino)-9H-purin-9-yl)-3,4-dihydroxytetrahydrofuran-2-yl)methyl sulfate] |  | 251 | 2250 |  | 
3 | O=[N+]([O-])OC[C@H]1O[C@@H](n2cnc3c(NC4CCOC4)ncnc32)[C@H](O)[C@@H]1O (stereo partly drawn) [Compound D, ((2R,3S,4R,5R)-3,4-dihydroxy-5-(6-(tetrahydrofuran-3-ylamino)-9H-purin-9-yl)tetrahydrofuran-2-yl)methyl nitrate] |  | 202 | >9434 |  | 
4 | O=[N+]([O-])OC[C@H]1O[C@@H](n2cnc3c(NC4CCCCC4)ncnc32)[C@H](O)[C@@H]1O [Compound E, ((2R,3S,4R,5R)-5-(6-(cyclohexylamino)-9H-purin-9-yl)-3,4-dihydroxytetrahydrofuran-2-yl)methyl nitrate] | 29 | 1098 | 878 | > 100000 | 
5 | O=[N+]([O-])OC[C@H]1O[C@@H](n2cnc3c(NC4CC5CCC4C5)ncnc32)[C@H](O)[C@@H]1O (stereo partly drawn) [Compound F, ((2R,3S,4R,5R)-5-(6-(bicycle-[2.2.1]-heptan-2-ylamino)-9H-purin-9-yl)-3,4-dihydroxytetrahydrofuran-2-yl)methyl nitrate] |  | 260 | 3945 |  | 
6 | O=S(=O)([O-])OC[C@H]1O[C@@H](n2cnc3c(NC4CCCCC4)nc(Cl)nc32)[C@H](O)[C@@H]1O.[Na+] [Compound G, sodium ((2R,3S,4R,5R)-5-(2-chloro-6-(cyclohexylamino)-9H-purin-9-yl)-3,4-dihydroxytetrahydrofuran-2-yl)methyl sulfate] | 19 | 130 | 200 | > 100000 | 
